{"source": "patent US4756910A", "about": "“Adriamycin-entrapping liposome preparation” (priority 1985, dated 1988)", "origin": "cited, not measured here", "data": [{"smiles": "COc1cccc2c1C(=O)c1c(O)c3c(c(O)c1C2=O)C[C@@](O)(C(=O)CO)C[C@@H]3O[C@H]1C[C@H](N)[C@H](O)[C@H](C)O1", "note": "[Free adriamycin, Adriamycin]", "values": [{"measurement": "Cardiac toxicity (in words)", "setting": "background statement", "result": "accumulative cardiac toxicity"}, {"measurement": "Disappearance from the blood (in words)", "setting": "in vivo, iv", "result": "rapidly disappears from the blood after intravenous administration"}]}]}
